Experimental data: the supplement of paper PMC10307832

Key:
Assay in all cases: relative viability (nuclei count vs DMSO), 5 days (fraction); higher = more cells survive
AZ505 + Luminespib = compound: C1CCC(CC1)N(CCNCCC2=C3C(=C(C=C2)O)NC(=O)CO3)C(=O)CCNCCC4=CC(=C(C=C4)Cl)Cl [AZ505] + CCNC(=O)c1noc(-c2cc(C(C)C)c(O)cc2O)c1-c1ccc(CN2CCOCC2)cc1 [Luminespib] (partner 0.01 µM)
Outline: (§1)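 Dosing by pin tool came one day after lung cancer cell lines were seeded in 1536-well plates, using either one drug or a fixed anchor-drug dose plus five library-drug doses (not always all listed) in √10 steps. After 5 days, nuclei were counted on 4× images. Relative viability is treated-well nuclei count divided by vehicle-well nuclei count, and values are medians of duplicate plates.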

AZ505 + Olaparib = compound: C1CCC(CC1)N(CCNCCC2=C3C(=C(C=C2)O)NC(=O)CO3)C(=O)CCNCCC4=CC(=C(C=C4)Cl)Cl [AZ505] + O=C(c1cc(Cc2n[nH]c(=O)c3ccccc23)ccc1F)N1CCN(C(=O)C2CC2)CC1 [Olaparib] (partner 8 µM)
Outline: as §1

Dactolisib + Pictilisib = compound: Cn1c(=O)n(-c2ccc(C(C)(C)C#N)cc2)c2c3cc(-c4cnc5ccccc5c4)ccc3ncc21 [Dactolisib] + CS(=O)(=O)N1CCN(Cc2cc3nc(-c4cccc5[nH]ncc45)nc(N4CCOCC4)c3s2)CC1 [Pictilisib] (partner 1 µM)
Outline: as §1

Dactolisib + AZD7762 = compound: Cn1c(=O)n(-c2ccc(C(C)(C)C#N)cc2)c2c3cc(-c4cnc5ccccc5c4)ccc3ncc21 [Dactolisib] + NC(=O)Nc1cc(-c2cccc(F)c2)sc1C(=O)N[C@H]1CCCNC1 [AZD7762] (partner 0.2 µM)
Outline: as §1

Row | Cell Line | relative viability (AZ505 + Luminespib; first compound 0.08 µM) | relative viability (AZ505 + Luminespib; first compound 0.253 µM) | relative viability (AZ505 + Luminespib; first compound 0.8 µM) | relative viability (AZ505 + Luminespib; first compound 2.53 µM) | relative viability (AZ505 + Luminespib; first compound 8 µM) | relative viability (AZ505 + Olaparib; first compound 0.08 µM) | relative viability (AZ505 + Olaparib; first compound 0.253 µM) | relative viability (AZ505 + Olaparib; first compound 0.8 µM) | relative viability (AZ505 + Olaparib; first compound 2.53 µM) | relative viability (AZ505 + Olaparib; first compound 8 µM) | relative viability (Dactolisib + Pictilisib; first compound 0.002 µM) | relative viability (Dactolisib + Pictilisib; first compound 0.006325 µM) | relative viability (Dactolisib + Pictilisib; first compound 0.02 µM) | relative viability (Dactolisib + Pictilisib; first compound 0.06325 µM) | relative viability (Dactolisib + Pictilisib; first compound 0.2 µM) | relative viability (Dactolisib + AZD7762; first compound 0.002 µM) | relative viability (Dactolisib + AZD7762; first compound 0.006325 µM) | relative viability (Dactolisib + AZD7762; first compound 0.02 µM) | relative viability (Dactolisib + AZD7762; first compound 0.06325 µM) | relative viability (Dactolisib + AZD7762; first compound 0.2 µM)
1 | 201T | 1.01 | 1.05 | 1.01 | 1.02 | 1.08 | 0.851 | 0.857 | 0.82 | 0.862 | 0.846 | 0.753 | 0.661 | 0.661 | 0.538 | 0.539 | 0.578 | 0.64 | 0.613 | 0.464 | 0.402
2 | NCI-H2170 | 0.637 | 0.606 | 0.512 | 0.714 | 0.835 | 0.544 | 0.601 | 0.614 | 0.58 | 0.594 | 0.305 | 0.311 | 0.289 | 0.22 | 0.224 | 0.806 | 0.88 | 0.753 | 0.382 | 0.244
3 | NCI-H460 | 0.0296 | 0.0436 | 0.0262 | 0.0334 | 0.0373 | 0.365 | 0.477 | 0.388 | 0.46 | 0.477 | 0.423 | 0.355 | 0.289 | 0.302 | 0.306 | 0.588 | 0.662 | 0.614 | 0.379 | 0.115
4 | HCC-15 | 0.264 | 0.323 | 0.346 | 0.312 | 0.302 | 0.639 | 0.723 | 0.75 | 0.73 | 0.736 | 0.762 | 0.746 | 0.707 | 0.392 | 0.343 | 1.18 | 1.02 | 1.26 | 1.13 | 0.971
5 | ABC-1 | 0.865 | 0.472 | 0.524 | 0.839 | 0.717 | 0.688 |  | 0.841 | 0.807 | 1.2 | 0.675 | 0.618 | 0.627 | 0.402 | 0.331 | 0.925 | 0.805 | 0.738 | 0.761 | 0.557
6 | LCLC-103H | 0.914 | 0.961 | 0.877 | 0.877 | 0.997 | 0.677 | 0.729 | 0.729 | 0.734 | 0.717 | 0.611 | 0.583 | 0.602 | 0.577 | 0.498 | 0.797 | 0.781 | 0.703 | 0.582 | 0.467
7 | NCI-H441 | 0.248 | 0.388 | 0.313 | 0.308 | 0.445 | 0.527 | 0.503 | 0.586 | 0.57 | 0.621 | 0.758 | 0.464 | 0.412 | 0.285 | 0.233 | 1.04 | 1.28 | 1.18 | 0.764 | 0.449
8 | EPLC-272H |  | 0.161 | 0.373 | 0.25 | 0.301 | 0.638 | 0.664 | 0.654 | 0.782 | 0.628 | 0.316 | 0.239 | 0.332 | 0.373 | 0.24 | 0.218 | 0.273 | 0.249 | 0.165 | 0.148
